These results are taken from PubChem BioAssay (NCI).

What all share (assay): NCI tumour cell line growth inhibition, 48 h
Assay [1] deals with LOX IMVI melanoma.
For assay [2], the system named is SK-MEL-5 melanoma.
The test system of assay [3] is UO-31 renal.
Assay [4] relates to NCI-H460 lung.
For assay [5], the system named is MDA-N.
Assay [6] has as its system U251 CNS.
Assay [7] relates to KM12 colon.
Assay [8] has as its system RPMI-8226 leukemia.
Assay [9] has as its system SR leukemia.
Assay [10] has as its system OVCAR-3 ovarian.

Where “and” joins values, the source holds several entries; their conditions need not be identical. Equal entries are not always repeated.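 Following 48 hours of exposure in 96-well plates, responses at five concentrations were used to interpolate endpoints linearly. At the GI50, growth is halved. TGI: concentration producing complete growth inhibition.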 Where a SMILES comes first, the peptide text is derived from it. [ ]: non-standard residue; d: D form. The star is where a group is joined. Bn2Val = CC(C)[C@@H](C(=O)*)N(Cc1ccccc1)Cc1ccccc1; NMeV = CN[C@H](C(=O)O)C(C)C; X29 = COc1ccc(CN*)c(OC)c1; dNMeA = CN[C@H](C)C(=O)O Some results are limits rather than exact numbers.

`Cc1ccc(S(=O)(=O)NC(=O)NC(CCCCN=C(N)N)C(=O)O)cc1` (configuration not stated): the TGI in assay [1], in assay [2], in assay [3], in assay [4], in assay [5] and in [6] was more than 100 µM throughout. Moreover, the TGI in assay [7], in assay [8] and in assay [9] was more than 100 µM in each case.
Consider `O=S(=O)(O)c1cccc2cccc(N=Nc3c(O)ccc4ccccc34)c12`, for which the TGI in assay [2], in assay [3], in assay [4], in assay [5], in assay [6] and in assay [7] was more than 100 µM in each case. The TGI in assay [10] and in assay [9] was more than 100 µM in each case.
Consider `COC(=O)[C@@](C)(COC(=O)C(C)(C)C)NC(=O)OC(C)(C)C`, for which the TGI in [1], in assay [2], in assay [3], in assay [4], in assay [5] and in assay [6] was more than 100 µM each time. The TGI in [7], in assay [8] and in assay [9] was more than 100 µM each time.
As to `CC(=O)OC1C2CCC3C(C)(O)C4CC(O)C(C)(C)C4(O)C(O)CC13CC2(C)O` (configuration not stated), the TGI in [1], in [2], in assay [3], in assay [5], in assay [7] and in [10] was more than 100 µM throughout. The TGI in [8] and in assay [9] was more than 100 µM in each case.
Consider `CCOC(=O)c1c(C)nc2c(c1-c1cn(-c3ccccc3)nc1-c1ccccc1)C(=O)c1ccccc1-2`, for which the TGI in assay [1], in assay [2], in assay [5], in assay [6], in assay [7] and in assay [10] was more than 100 µM in each case.
On to `O=[N+]([O-])c1ccc2oc(=Nc3ccccc3)c(Nc3ccccc3)nc2c1`, for which the TGI in assay [1], in assay [2], in assay [3], in assay [4], in [5] and in assay [6] was more than 100 µM each time. The TGI in assay [7], in [8] and in [9] was more than 100 µM each time.
Consider `CCOc1ccc(N=NC2C(=O)N(C(=O)CC(=O)Nc3ccccc3)N=C2C)cc1` (configuration not stated), for which the TGI was more than 100 µM in assay [1]; more than 100 µM in assay [2]; more than 100 µM in assay [3]; more than 100 µM in [4]; 21.5 µM in assay [5]; more than 100 µM in assay [6]. For the same molecule, the TGI in [7], in assay [10] and in assay [9] was more than 100 µM in each case.
As for `C=C1[C@@](C)([C@@H]2CCCS2)[C@H]2C(C)=C[C@]1(C)n1c(=O)n(-c3ccccc3)c(=O)n12`, the TGI in [2], in [3], in assay [4], in assay [5], in assay [6] and in assay [7] was more than 100 µM throughout. The TGI in [10] and in assay [8] was more than 100 µM each time.
Turning to `CS[C@]12[C@@H]3C(=O)N(C)C(=O)[C@@H]3[C@](C)(C(=O)N1C)C(=O)N2c1ccccc1`, the TGI in assay [1], in assay [2], in assay [3], in assay [5], in assay [6] and in assay [7] was more than 100 µM in each case. For the same molecule, the TGI in assay [10] and in assay [8] was more than 100 µM in each case.
Regarding `CC1(C)CC2(C)CC1CC2(O)c1ccccc1` (configuration not stated), the TGI in assay [2], in [3], in assay [4], in [5], in assay [6] and in assay [7] was more than 100 µM each time. The TGI in assay [10] and in assay [9] was more than 100 µM in each case.
Turning to `CC(C)(C)CC(C)(C)NC(=S)NO`, the TGI in assay [1], in assay [2], in [3], in assay [4], in assay [5] and in [7] was more than 100 µM each time. The TGI in assay [10], in assay [8] and in assay [9] was more than 100 µM throughout.
For `CN(C(=O)c1ccc2c(c1)sc1c(=O)n(C)c3ccccc3c12)c1ccccc1`, the TGI in [1], in assay [2], in assay [3], in assay [4], in [5] and in [6] was more than 100 µM throughout. Moreover, the TGI in [7], in assay [10] and in [9] was more than 100 µM throughout.
As for `Cc1ccnc2nc(N)ccc12`, the TGI in assay [2], in assay [3], in assay [4], in [5], in assay [6] and in assay [7] was more than 100 µM throughout. The TGI in assay [8] and in assay [9] was more than 100 µM throughout.
For `CCCC1C(=O)Nc2cccc3ncn(c23)C1=O` (configuration not stated), the TGI in [2], in assay [3], in [4], in assay [5], in [6] and in assay [7] was more than 100 µM each time. For the same molecule, the TGI in assay [10], in [8] and in [9] was more than 100 µM each time.
As for `C=C[C@@]1(O)CCCC[C@@H]1CC(Sc1ccccc1)Sc1ccccc1`, the TGI is 34.5 µM in assay [1]; 30.8 µM in assay [2]; 32.2 µM in [3]; 26.2 µM in assay [4]; 44.8 µM in [5]; 31.9 µM in assay [6]. In addition, the TGI is 37.9 µM in assay [7], 90.2 µM in assay [8] and more than 100 µM in assay [9].
`COc1cccc(/C(Cl)=C(\C=O)c2cccc(OC)c2)c1`: the TGI in assay [1] stood at 20.3 µM; in [2], 23.8 µM; in [3] it was 68.1 µM; in assay [4], 26.4 µM; in [6] it was 22.2 µM; in assay [7], 26.3 µM. The TGI in assay [10] was found to be 29.1 µM; in assay [8] it was 45.1 µM; in assay [9], 39.5 µM.
Regarding `Cc1nc2n(c1/C=C1/C(=O)Nc3ccccc31)CCS2`, the TGI was more than 100 µM in [1]; more than 100 µM in assay [2]; more than 100 µM in assay [3]; more than 100 µM in assay [4]; 44.4 µM in [5]; more than 100 µM in assay [6]. Further, the TGI in assay [7], in assay [10] and in assay [8] was more than 100 µM each time.
`COC(=O)C(=O)C(C(=O)C(=O)Nc1cccc([N+](=O)[O-])c1)c1nc2ccc(Cl)cc2[nH]c1=O` (configuration not stated): the TGI in [1], in assay [2], in assay [3], in assay [4], in [5] and in assay [6] was more than 100 µM throughout. The TGI in assay [7] and in assay [10] was more than 100 µM throughout.
On to `N=C(N)SCCC(=O)CCSC(=N)N`, for which the TGI in assay [1], in assay [2], in assay [3], in assay [4], in assay [5] and in assay [6] was more than 100 µM in each case. In addition, the TGI in assay [7], in [10] and in [9] was more than 100 µM each time.
`COc1ccc2nc3c(c(NCCCN(C)C)c2c1)CCCC3`: the TGI in assay [1] was found to be 25.8 µM; in assay [2] it was 29.2 µM; in assay [3], 39.6 µM; in assay [4] it was 24.3 µM; in assay [6] it was 30.1 µM; in assay [7], 33 µM. Further, the TGI in assay [10] stood at 51.4 µM; in assay [8], 27.2 µM; in [9], 5.77 µM.
Consider `CC1(C)C(CCO)CC1n1ccc(=O)[nH]c1=O` (configuration not stated), for which the TGI in assay [1], in [2], in assay [3], in assay [5], in assay [6] and in [7] was more than 100 µM throughout. The TGI in [10] was more than 100 µM.
As for `Cc1cccc2nc3c(=O)[nH]c(=O)nc-3n(C)c12`, the TGI in assay [1], in assay [2], in assay [4], in [5], in [6] and in assay [7] was more than 100 µM in each case. Besides, the results for the TGI in [10] and in assay [8] were more than 100 µM and 95.4 µM, respectively.
On to `Cc1cccc2c1c1ccc3c(c1n2C)C(=O)C=CC3=O`, for which the TGI was determined as 6.58 µM in assay [1]; 29.6 µM in assay [2]; 9.83 µM in assay [3]; 37.8 µM in assay [4]; 25.8 µM in assay [6]; 28.6 µM in assay [7]. Further, the TGI was found to be 5.08 µM in assay [10], 13.2 µM in assay [8] and 4.45 µM in assay [9].
With `COc1ccc(CNC(=O)[C@@H]2CCCN2C(=O)[C@@H](C)N(C)C(=O)[C@H](C(C)C)N(C)C(=O)[C@@H](NC(=O)[C@H](C(C)C)N(Cc2ccccc2)Cc2ccccc2)C(C)C)c(OC)c1` (Bn2Val-V[NMeV][dNMeA]P-X29), the TGI was found to be 7.13 µM in assay [1]; 12 µM in assay [3]; 15.5 µM in [4]; 5.78 µM in assay [5]; 5.21 µM in assay [6]; 5.78 µM in assay [7]. For the same molecule, the figures for the TGI in assay [10] and in [8] were 14.7 µM and 17.2 µM, respectively.
On to `O=C1CC(C(OCc2ccccc2)C(OCc2ccccc2)C(COCc2ccccc2)OCc2ccccc2)CC(=O)N1` (configuration not stated), for which the TGI in assay [1], in [2], in assay [3], in assay [4], in [5] and in assay [6] was more than 100 µM throughout. Further, the TGI in assay [7], in assay [8] and in assay [9] was more than 100 µM throughout. Further, the GI50 in assay [3] was > 100 µM and 45.7 µM; in assay [6], > 100 µM and 40 µM; in assay [7], > 100 µM and 37.9 µM.
Consider `Cc1ccc(-n2cc(-c3ccc(Cl)cc3)c3c(NN)ncnc32)cc1`, for which the TGI amounted to 19.7 µM in assay [1]; 7.23 µM in [2]; 12.3 µM in assay [3]; 14.1 µM in assay [4]; 63.2 µM in assay [5]; 15.6 µM in [6]. Further, the TGI in assay [7] is 29 µM; in assay [10] it was 12.8 µM; in assay [9] it was 9.28 µM.
With `O=Nn1c2ccccc2c2cc([N+](=O)[O-])ccc21`, the TGI in [1] is 30.9 µM; in [2], more than 100 µM; in assay [3] it was 49.2 µM; in [4], 54.2 µM; in assay [5], 37.5 µM; in assay [6], 33.1 µM. The TGI worked out at 42 µM in assay [7], 33.6 µM in assay [10] and 38.8 µM in assay [8].
As to `C[N+](C)(C)C=Nc1cccc2c1CCCC2`, the TGI in [1], in [2], in assay [3], in assay [5], in assay [6] and in [10] was more than 100 µM in each case. Moreover, the TGI in assay [8] and in assay [9] was more than 100 µM in each case.
Turning to `CCN(CC)CCCNC(=O)c1cc2cc(NC(=O)c3cc4cc([N+](=O)[O-])ccc4[nH]3)ccc2[nH]1`, the TGI in assay [2] was more than 100 µM; in assay [3], more than 100 µM; in assay [4], more than 100 µM; in assay [5] it was more than 100 µM; in [7], more than 100 µM; in assay [10], 75.8 µM. In addition, the TGI in assay [8] and in assay [9] was more than 100 µM in each case.
Take `COCC1OC(S(=O)(=O)c2ccccc2)C(O)C(OC)C1OC` (configuration not stated): the TGI in assay [1], in [2], in assay [3], in [4], in assay [5] and in assay [6] was more than 100 µM throughout. For the same molecule, the TGI in assay [7], in [10] and in assay [9] was more than 100 µM throughout.
